Assay [1] has as its system Listeria monocytogenes. Description: Antibacterial activity against leucocin A-resistant Listeria monocytogenes B73-MR1 after 16 hrs by micro-gel well diffusion assay. It counts as functional.
For assay [2], the system named is Listeria monocytogenes. The assay can be described thus: Antibacterial activity against leucocin A-sensitive Listeria monocytogenes B73 after 16 hrs by broth microdilution assay. In kind it is functional, organism-based. As to conditions: B73, 16 h. For orientation: In broth dilution the organism is exposed to a series of concentrations in liquid medium.
The subject of assay [3] is Listeria monocytogenes. The assay can be described thus: Antibacterial activity against leucocin A-sensitive Listeria monocytogenes B73 after 16 hrs by micro-gel well diffusion assay. It counts as functional. (A growth-free zone around the sample is the usual read-out of agar diffusion tests.)
Assay [4] relates to Listeria monocytogenes. Description: Antibacterial activity against leucocin A-resistant Listeria monocytogenes B73-MR1 after 16 hrs by broth microdilution assay. In kind it is functional, organism-based. The following applies: B73-MR1, 16 h.
Assay [5] deals with Micrococcus luteus. Description: Antibacterial activity against Micrococcus luteus NCTC 8340 after 16 hrs by micro-gel well diffusion assay. In kind it is functional.
In assay [6] the test system is Listeria monocytogenes. The assay can be described thus: Antilysterial activity against leucocin A-sensitive Listeria monocytogenes B73 assessed as bacterial lysis per min at 10 uM by broth microdilution assay. It counts as functional.
Assay [7] concerns Listeria monocytogenes. The assay can be described thus: Antilysterial activity against leucocin A-sensitive Listeria monocytogenes B73 assessed as bacterial lysis half life at 10 uM by broth microdilution assay. It counts as functional, organism-based.
Assay [8] concerns Micrococcus luteus. Description: Antibacterial activity against Micrococcus luteus NCTC 8340 after 16 hrs by broth microdilution assay. It counts as functional, organism-based. As to conditions: NCTC 8340, 16 h.
Assay [9] deals with Listeria monocytogenes. Description: Antilysterial activity against leucocin A-sensitive Listeria monocytogenes B73 assessed as bacterial lysis at 10 uM after 60 mins by broth microdilution assay. In kind it is functional.
In the next assay the test system is Escherichia coli. Description: Antibacterial activity against Escherichia coli HB101 at 200 ug/mL after 16 hrs by broth microdilution assay. It counts as functional.

SMILES strings stand for the structures. pIC50: −log10 of the molar value. Non-standard residues stand in square brackets, D forms with d. Residues, ends and D or L forms follow the SMILES beside them. Orn = NCCC[C@H](N)C(=O)O

As usually defined, the pIC50 is the IC50 on a negative log10 scale, so that one unit is a factor of ten. A high value points to a low IC50. Broadly, the IC50 is the concentration at which inhibition is half-maximal. A higher IC50 goes with a need for much substance.

`CC(C)C[C@@H]1NC(=O)[C@H](CCCN)NC(=O)[C@H](C(C)C)NC(=O)[C@@H]2CCCN2C(=O)[C@@H](Cc2ccccc2)NC(=O)[C@H](CC(C)C)NC(=O)[C@H](CCCN)NC(=O)[C@H](C(C)C)NC(=O)[C@@H]2CCCN2C(=O)[C@@H](Cc2ccccc2)NC1=O` [GRAMICIDIN S] (cyclo(L[dF]PV[Orn]L[dF]PV[Orn])): the ICmax in the assay on Listeria monocytogenes [1] worked out at 6.2 µM; in the assay on Listeria monocytogenes [3], 11 µM; in the assay on Micrococcus luteus [5], 31 µM. In addition, the results for the pIC50 in the assay with Listeria monocytogenes [2], in the assay on Listeria monocytogenes [4] and in the assay on Micrococcus luteus [8] were 5.18, 5.41 and 5.17, respectively. Also, the results for the Activity in the assay with Listeria monocytogenes [6] and in the assay with Listeria monocytogenes [9] were 1.61% and 70%, respectively. Further, in the assay on Listeria monocytogenes [7], the T1/2 came to 38.5 min.

Turning to `CC(C)C[C@@H]1NC(=O)[C@H](CCCCN)NC(=O)[C@H](C(C)C)NC(=O)[C@H](Cc2ccc(O)cc2)NC(=O)[C@H](CCC(N)=O)NC(=O)[C@H](CC(N)=O)NC(=O)[C@@H](Cc2ccccc2)NC(=O)[C@H](Cc2ccccc2)NC(=O)[C@@H]2CCCN2C(=O)[C@@H](Cc2ccccc2)NC1=O` [TYROCIDINE A1], the ICmax is 16 µM with Listeria monocytogenes [1], 38 µM with Listeria monocytogenes [3] and 72 µM in the assay on Micrococcus luteus [5]. In addition, the values for the Activity in the assay with Escherichia coli, in the assay on Listeria monocytogenes [6] and with Listeria monocytogenes [9] were <50%, 1.47% and 62%, respectively. Besides, the negative-log IC50 (pIC50) is 4.74 in the assay on Listeria monocytogenes [2], 5.00 in the assay on Listeria monocytogenes [4] and 4.59 in the assay on Micrococcus luteus [8]. In the assay on Listeria monocytogenes [7], the T1/2 came to 32.2 min.

In the case of `CC(C)C[C@@H]1NC(=O)[C@H](CCCN)NC(=O)[C@H](C(C)C)NC(=O)[C@H](Cc2ccc(O)cc2)NC(=O)[C@H](CCC(N)=O)NC(=O)[C@H](CC(N)=O)NC(=O)[C@@H](Cc2ccccc2)NC(=O)[C@H](Cc2ccccc2)NC(=O)[C@@H]2CCCN2C(=O)[C@@H](Cc2ccccc2)NC1=O` [TYROCIDINE A] (cyclo(F[dF]NQYV[Orn]L[dF]P)), the results for the ICmax in the assay with Listeria monocytogenes [1], with Listeria monocytogenes [3] and in the assay on Micrococcus luteus [5] were 16 µM, 25 µM and 70 µM, respectively. Moreover, the Activity in the assay on Escherichia coli was <50%; in the assay on Listeria monocytogenes [6], 1.62%; in the assay on Listeria monocytogenes [9], 59%. Besides, the pIC50 in the assay with Listeria monocytogenes [2] was 4.89; in the assay with Listeria monocytogenes [4], 5.00; with Micrococcus luteus [8] it was 4.66. Besides, the T1/2 with Listeria monocytogenes [7] is 32.3 min.

Regarding `CC(C)C[C@@H]1NC(=O)[C@H](CCCCN)NC(=O)[C@H](C(C)C)NC(=O)[C@H](Cc2ccc(O)cc2)NC(=O)[C@H](CCC(N)=O)NC(=O)[C@H](CC(N)=O)NC(=O)[C@@H](Cc2ccccc2)NC(=O)[C@H](Cc2c[nH]c3ccccc23)NC(=O)[C@@H]2CCCN2C(=O)[C@@H](Cc2ccccc2)NC1=O` [TYROCIDINE B1], the ICmax in the assay on Listeria monocytogenes [1] came to 10 µM; in the assay on Listeria monocytogenes [3], 15 µM; in the assay with Micrococcus luteus [5], 8.9 µM. In addition, the Activity is listed as <50% in the assay on Escherichia coli, 1.68% with Listeria monocytogenes [6] and 63% in the assay with Listeria monocytogenes [9]. The negative-log IC50 (pIC50) in the assay with Listeria monocytogenes [2] is 5.09; in the assay with Listeria monocytogenes [4] it was 5.17; in the assay on Micrococcus luteus [8], 5.38. The T1/2 in the assay on Listeria monocytogenes [7] worked out at 29.6 min.

On to `CC(C)C[C@@H]1NC(=O)[C@H](CCCN)NC(=O)[C@H](C(C)C)NC(=O)[C@H](Cc2ccc(O)cc2)NC(=O)[C@H](CCC(N)=O)NC(=O)[C@H](CC(N)=O)NC(=O)[C@@H](Cc2ccccc2)NC(=O)[C@H](Cc2c[nH]c3ccccc23)NC(=O)[C@@H]2CCCN2C(=O)[C@@H](Cc2ccccc2)NC1=O` [TYROCIDINE B], for which the ICmax in the assay with Listeria monocytogenes [1] stood at 12 µM; in the assay with Listeria monocytogenes [3] it was 15 µM; with Micrococcus luteus [5] it was 9.9 µM. Besides, the Activity with Escherichia coli is reported as <50%; in the assay with Listeria monocytogenes [6], 1.53%; with Listeria monocytogenes [9], 64%. Further, the pIC50 with Listeria monocytogenes [2] is 5.00; in the assay with Listeria monocytogenes [4], 5.11; with Micrococcus luteus [8], 5.19. Further, the T1/2 in the assay on Listeria monocytogenes [7] was found to be 28.8 min.

In the case of `CC(C)C[C@@H]1NC(=O)[C@H](CCCCN)NC(=O)[C@H](C(C)C)NC(=O)[C@H](Cc2ccc(O)cc2)NC(=O)[C@H](CCC(N)=O)NC(=O)[C@H](CC(N)=O)NC(=O)[C@@H](Cc2c[nH]c3ccccc23)NC(=O)[C@H](Cc2c[nH]c3ccccc23)NC(=O)[C@@H]2CCCN2C(=O)[C@@H](Cc2ccccc2)NC1=O` [TYROCIDINE C1], the ICmax in the assay with Listeria monocytogenes [1] was 16 µM; in the assay with Listeria monocytogenes [3] it was 22 µM; in the assay on Micrococcus luteus [5] it was 15 µM. In addition, the values for the Activity with Escherichia coli, in the assay with Listeria monocytogenes [6] and with Listeria monocytogenes [9] were <50%, 1.55% and 60%, respectively. Besides, the negative-log IC50 (pIC50) in the assay with Listeria monocytogenes [2] was 5.03; with Listeria monocytogenes [4], 5.12; in the assay with Micrococcus luteus [8], 5.14. In addition, in the assay with Listeria monocytogenes [7], the T1/2 was 27.5 min.

With `CC(C)C[C@@H]1NC(=O)[C@H](CCCN)NC(=O)[C@H](C(C)C)NC(=O)[C@H](Cc2ccc(O)cc2)NC(=O)[C@H](CCC(N)=O)NC(=O)[C@H](CC(N)=O)NC(=O)[C@@H](Cc2c[nH]c3ccccc23)NC(=O)[C@H](Cc2c[nH]c3ccccc23)NC(=O)[C@@H]2CCCN2C(=O)[C@@H](Cc2ccccc2)NC1=O` [TYROCIDINE C], the ICmax in the assay with Listeria monocytogenes [1] turned out to be 11 µM; in the assay with Listeria monocytogenes [3] it was 13 µM; in the assay on Micrococcus luteus [5], 9 µM. For the same molecule, the Activity in the assay with Escherichia coli is <50%; with Listeria monocytogenes [6] it was 1.48%; in the assay with Listeria monocytogenes [9], 66%. The pIC50 in the assay on Listeria monocytogenes [2] was 5.02; in the assay with Listeria monocytogenes [4], 5.15; in the assay with Micrococcus luteus [8], 5.19. Further, the T1/2 with Listeria monocytogenes [7] worked out at 31.2 min.

As for `CC(C)C[C@@H]1NC(=O)[C@H](CCCN)NC(=O)[C@H](C(C)C)NC(=O)[C@H](Cc2ccc(O)cc2)N[C@@H](CCC(=O)O)C(=O)N[C@@H](CC(N)=O)C(=O)[C@@H](Cc2ccccc2)NC(=O)[C@H](Cc2ccccc2)NC(=O)[C@@H]2CCCN2C(=O)[C@@H](Cc2ccccc2)NC1=O` [TYROTHRICIN], the ICmax is 29 µg/mL in the assay on Listeria monocytogenes [1], 21 µg/mL in the assay with Listeria monocytogenes [3] and 6.3 µg/mL in the assay on Micrococcus luteus [5]. The figures for the IC50 in the assay with Listeria monocytogenes [2], with Listeria monocytogenes [4] and in the assay with Micrococcus luteus [8] were 12 µg/mL, 9.7 µg/mL and 3.5 µg/mL, respectively.

For the origin of these results see ChEMBL document CHEMBL1155276, “Anti-listerial activity and structure-activity relationships of the six major tyrocidines, cyclic decapeptides from Bacillus aneurinolyticus” (Bioorg Med Chem, 2009).
